Target: T1, HEK cells stably transfected with tetracycline inducible hNR1 and hNR2A (Homo sapiens, UniProt Q05586+Q12879)
T1 construct: expressed in transfected cells; host or cells: HEK cells, stably transfected, tetracycline/doxycycline inducible
Experiment: Assay 1: Cell-Based Assay, cytosolic calcium response to positive allosteric modulators (with 30 μM glycine and 300 nM L-glutamate, EC30)
Conditions: for EC50: cytosolic calcium response, with 30 μM glycine and 300 nM L-glutamate (EC30), — = no plateau was reached; for Max %: responses scaled relative to 100 μM L-glutamate maximal response (100%) and 0 μM L-glutamate (0%)
Method in brief: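 Cells induced 24 h with 7.5 μg mL^−1 doxycycline plus 500 μM (+)-ketamine, loaded 60 min at 37 °C with calcium dye in Mg-free HBSS (1.8 mM Ca, probenecid, 10 μM (+)-ketamine, pH 7.15). Peak RFU over 5 min after compound addition, scaled to 100 μM L-glutamate (100%) and 0 μM (0%); four-parameter Hill fit for EC50, max % if no plateau.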

T1 sequence (Q12879 23-1464, other chains not shown): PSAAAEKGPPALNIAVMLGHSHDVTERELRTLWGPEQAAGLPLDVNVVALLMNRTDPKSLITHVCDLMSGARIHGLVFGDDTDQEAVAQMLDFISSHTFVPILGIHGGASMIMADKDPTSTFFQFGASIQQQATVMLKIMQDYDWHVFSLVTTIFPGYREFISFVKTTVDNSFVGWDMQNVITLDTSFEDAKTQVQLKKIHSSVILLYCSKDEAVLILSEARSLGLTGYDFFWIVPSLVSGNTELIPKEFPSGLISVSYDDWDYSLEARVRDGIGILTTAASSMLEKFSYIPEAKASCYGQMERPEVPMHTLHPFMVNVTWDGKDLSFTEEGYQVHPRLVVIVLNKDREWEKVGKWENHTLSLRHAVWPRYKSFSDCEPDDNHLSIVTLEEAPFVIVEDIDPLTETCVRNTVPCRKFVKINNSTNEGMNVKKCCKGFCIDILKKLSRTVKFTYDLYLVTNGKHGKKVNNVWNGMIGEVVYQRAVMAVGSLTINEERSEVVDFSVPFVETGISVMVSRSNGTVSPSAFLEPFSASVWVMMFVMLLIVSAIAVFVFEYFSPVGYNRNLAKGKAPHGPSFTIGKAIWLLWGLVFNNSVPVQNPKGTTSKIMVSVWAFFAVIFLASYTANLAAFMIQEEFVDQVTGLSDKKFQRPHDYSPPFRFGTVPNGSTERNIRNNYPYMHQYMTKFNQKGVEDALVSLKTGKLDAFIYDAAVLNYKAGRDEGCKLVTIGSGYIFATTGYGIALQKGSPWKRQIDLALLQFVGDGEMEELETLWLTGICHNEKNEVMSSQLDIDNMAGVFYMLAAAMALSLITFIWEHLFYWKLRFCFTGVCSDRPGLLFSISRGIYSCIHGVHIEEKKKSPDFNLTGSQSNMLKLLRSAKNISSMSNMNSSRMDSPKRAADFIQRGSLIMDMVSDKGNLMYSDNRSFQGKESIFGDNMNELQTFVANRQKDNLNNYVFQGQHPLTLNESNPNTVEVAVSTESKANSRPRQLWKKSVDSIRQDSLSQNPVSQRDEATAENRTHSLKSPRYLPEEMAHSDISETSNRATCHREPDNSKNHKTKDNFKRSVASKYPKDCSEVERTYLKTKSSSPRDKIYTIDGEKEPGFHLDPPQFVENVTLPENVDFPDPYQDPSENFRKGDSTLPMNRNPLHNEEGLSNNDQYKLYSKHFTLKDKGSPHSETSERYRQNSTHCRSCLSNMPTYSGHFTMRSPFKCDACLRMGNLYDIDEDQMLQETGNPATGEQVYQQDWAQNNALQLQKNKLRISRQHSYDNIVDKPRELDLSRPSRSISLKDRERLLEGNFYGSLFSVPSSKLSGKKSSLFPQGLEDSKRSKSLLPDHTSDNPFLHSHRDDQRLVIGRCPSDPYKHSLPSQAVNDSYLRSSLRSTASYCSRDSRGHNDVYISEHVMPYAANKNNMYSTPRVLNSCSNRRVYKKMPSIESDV

| Structure (SMILES) | EC50 (Table 3) [µM] | EC50 (Table 2) [µM] | Max % (Table 2) [%] |
| --- | --- | --- | --- |
| Cc1sc2nc(Cn3nc(Cl)cc3C(F)(F)F)cc(=O)n2c1C(C)(C)O [compound 109, 7-[[3-chloro-5-(trifluoromethyl)pyrazol-1-yl]methyl]-3-(1-hydroxy-1-methyl-ethyl)-2-methyl-thiazolo[3,2-a]pyrimidin-5-one] | 0.734 | – | – |
| CCN(Cc1cc(=O)n2c(C#N)c(C)sc2n1)c1ccc(F)c(F)c1 [Example 7.1, 7-(((3,4-difluorophenyl)(ethyl)amino)methyl)-2-methyl-5-oxo-5H-thiazolo[3,2-a]pyrimidine-3-carbonitrile] | – | 0.853 | 184 |
| Cc1sc2nc(Cn3nc(C(F)(F)F)cc3Cl)cc(=O)n2c1-c1cccnc1 [compound 134, 7-[[5-chloro-3-(trifluoromethyl)pyrazol-1-yl]methyl]-2-methyl-3-(3-pyridyl)thiazolo[3,2-a]pyrimidin-5-one] | 0.501 | – | – |
| O=c1cc(Cn2nc(C(F)(F)F)cc2Cl)nc2sc(C(F)(F)F)c(C3CC3)n12 [compound 184, 7-[[5-chloro-3-(trifluoromethyl)pyrazol-1-yl]methyl]-3-cyclopropyl-2-(trifluoromethyl)thiazolo[3,2-a]pyrimidin-5-one] | 9.99 | – | – |
| CCNC(=O)c1c(C)sc2nc(Cc3cc(F)ccc3F)cc(=O)n12 [Example 21.42, 7-(2,5-difluorobenzyl)-N-ethyl-2-methyl-5-oxo-5H-thiazolo[3,2-a]pyrimidine-3-carboxamide] | – | – | 54.5 |
| Cc1sc2nc(Cn3nc(Cl)cc3Cl)cc(=O)n2c1C1CC1C#N (stereo not drawn) [compound 251] | 0.42 | – | – |
| O=c1cc(Cn2nc(Cl)cc2C(F)(F)F)nc2sc(C(F)(F)F)c(-c3cncnc3)n12 [compound 172, 7-[[3-chloro-5-(trifluoromethyl)pyrazol-1-yl]methyl]-3-pyrimidin-5-yl-2-(trifluoromethyl)thiazolo[3,2-a]pyrimidin-5-one] | 27.6 | – | – |
| CCN(Cc1cc(=O)n2c(CSC)c(C)sc2n1)c1ccc(F)cc1 [Example 10.25, 7-((ethyl(4-fluorophenyl)amino)methyl)-2-methyl-3-((methylthio)methyl)-5H-thiazolo[3,2-a]pyrimidin-5-one] | – | 0.345 | 165 |
| CCNC(=O)c1c(C)sc2nc(CN(CC)c3ccc(F)cc3)cc(=O)n12 [compound 82, N-ethyl-7-[(N-ethyl-4-fluoro-anilino)methyl]-2-methyl-5-oxo-thiazolo[3,2-a]pyrimidine-3-carboxamide] | 0.0787 | – | – |
| CCc1sc2nc(Cn3nc(Cl)cc3C(F)(F)F)cc(=O)n2c1C1CC1C#N (stereo not drawn) [compound 214, 2-[7-[[3-chloro-5-(trifluoromethyl)pyrazol-1-yl]methyl]-2-ethyl-5-oxo-thiazolo[3,2-a]pyrimidin-3-yl]cyclopropanecarbonitrile] | 0.18 | – | – |
| Cc1sc2nc(Cn3nc(C4CC4)cc3C(F)(F)F)cc(=O)n2c1C(=O)NCC(F)(F)F [compound 58, 7-[[3-cyclopropyl-5-(trifluoromethyl)pyrazol-1-yl]methyl]-2-methyl-5-oxo-N-(2,2,2-trifluoroethyl)thiazolo[3,2-a]pyrimidine-3-carboxamide] | 6.53 | – | – |
| Cc1sc2nc(COc3ccc(F)cc3)cc(=O)n2c1C1(O)COC1 [Example 4.32, 7-((4-fluorophenoxy)methyl)-3-(3-hydroxyoxetan-3-yl)-2-methyl-5H-thiazolo[3,2-a]pyrimidin-5-one] | – | – | 50.2 |
| CCN(Cc1cc(=O)n2c(C(C)C)c(C)sc2n1)c1ccc(F)cc1 [Example 9.2, 7-[(N-ethyl-4-fluoro-anilino)methyl]-3-isopropyl-2-methyl-thiazolo[3,2-a]pyrimidin-5-one] | – | 2.9 | 117 |
| Cc1sc2nc(Cn3nc(Cl)cc3C(F)(F)F)cc(=O)n2c1C1CC1CO (stereo not drawn) [compound 103, 7-[[3-chloro-5-(trifluoromethyl)pyrazol-1-yl]methyl]-3-[2-(hydroxymethyl)cyclopropyl]-2-methyl-thiazolo[3,2-a]pyrimidin-5-one] | 0.251 | – | – |
| CCN(Cc1cc(=O)n2c(N3CCOCC3)c(C)sc2n1)c1ccc(F)cc1 [Example 6.1, 7-((ethyl(4-fluorophenyl)amino)methyl)-2-methyl-3-morpholino-5H-thiazolo[3,2-a]pyrimidin-5-one] | – | 10 | 123 |
| CCN(Cc1cc(=O)n2c(C(C)=O)c(C)sc2n1)c1ccc(F)cc1 [Example 10.3, 3-acetyl-7-[[ethyl(4-fluorophenyl)amino]methyl]-2-methyl-5H-[1,3]thiazolo[3,2-a]pyrimidin-5-one] | – | 0.535 | 177 |
| CCNC(=O)c1c(C)sc2nc(CN(CC)c3ccc(F)cn3)cc(=O)n12 [compound 147, N-ethyl-7-[[ethyl-(5-fluoro-2-pyridyl)amino]methyl]-2-methyl-5-oxo-thiazolo[3,2-a]pyrimidine-3-carboxamide] | 1.98 | – | – |

| Structure (SMILES) | EC50 (Table 3) [µM] | EC50 (Table 2) [µM] | Max % (Table 2) [%] |
| --- | --- | --- | --- |
| Cc1cc(C)n(Cc2cc(=O)n3c([C@@H]4C[C@H]4CO)c(C)sc3n2)n1 (relative stereo) [Example 15.25, 7-[(3,5-dimethylpyrazol-1-yl)methyl]-3-[trans-2-(hydroxymethyl)cyclopropyl]-2-methyl-thiazolo[3,2-a]pyrimidin-5-one] | – | 16.5 | 137 |
| CCNC(=O)c1c(C)sc2nc(Cc3cccc(C#N)c3F)c(F)c(=O)n12 [Example 21.28, 7-(3-cyano-2-fluorobenzyl)-N-ethyl-6-fluoro-2-methyl-5-oxo-5H-thiazolo[3,2-a]pyrimidine-3-carboxamide] | – | 11.4 | 126 |
| COc1sc2nc(Cn3nc(Cl)cc3C(F)(F)F)cc(=O)n2c1C(C)=O [compound 245, 3-acetyl-7-[[3-chloro-5-(trifluoromethyl)pyrazol-1-yl]methyl]-2-methoxy-thiazolo[3,2-a]pyrimidin-5-one] | 0.409 | – | – |
| CCNC(=O)c1c(C)sc2nc(Cc3cc(C#N)cc(C4CC4)c3F)cc(=O)n12 [compound 4, 7-[(5-cyano-3-cyclopropyl-2-fluoro-phenyl)methyl]-N-ethyl-2-methyl-5-oxo-thiazolo[3,2-a]pyrimidine-3-carboxamide] | 3.88 | – | – |
| CCN(Cc1cc(=O)n2c([C@@H]3C[C@H]3CF)c(C)sc2n1)c1ccc(F)cc1 (relative stereo) [Example 5.39, 7-((ethyl(4-fluorophenyl)amino)methyl)-3-(trans-2-(fluoromethyl)cyclopropyl)-2-methyl-5H-thiazolo[3,2-a]pyrimidin-5-one] | – | 0.952 | 167 |
| CC(=O)c1csc2nc(Cn3nc(C(F)(F)F)cc3Cl)cc(=O)n12 [compound 242, 3-acetyl-7-[[5-chloro-3-(trifluoromethyl)pyrazol-1-yl]methyl]thiazolo[3,2-a]pyrimidin-5-one] | 11.4 | – | – |
| Cc1sc2nc(Cc3cccc(C(F)(F)F)c3F)cc(=O)n2c1C(=O)NCC(F)(F)F [compound 51, 7-[[2-fluoro-3-(trifluoromethyl)phenyl]methyl]-2-methyl-5-oxo-N-(2,2,2-trifluoroethyl)thiazolo[3,2-a]pyrimidine-3-carboxamide] | 3.16 | – | – |
| CCNC(=O)c1c(C(F)(F)F)sc2nc(Cc3cccc(C#N)c3F)cc(=O)n12 [compound 41, 7-[(3-cyano-2-fluoro-phenyl)methyl]-N-ethyl-5-oxo-2-(trifluoromethyl)thiazolo[3,2-a]pyrimidine-3-carboxamide] | 4.78 | – | – |
| COCC1CC1c1c(C)sc2nc(COc3ccc(F)cc3)cc(=O)n12 (stereo not drawn) [Example 4.27, 7-(4-Fluorophenoxymethyl)-3-[2-(methoxymethyl)cyclopropyl]-2-methyl-5H-[1,3]thiazolo[3,2-a]pyrimidin-5-one] | – | – | 103 |
| Cc1sc2nc(Cc3cccc(C#N)c3F)cc(=O)n2c1-c1ccco1 [Example 24.8, 2-fluoro-3-((3-(furan-2-yl)-2-methyl-5-oxo-5H-thiazolo[3,2-a]pyrimidin-7-yl)methyl)benzonitrile] | – | 8.9 | – |
| CNC(=O)Cc1c(C)sc2nc(Cc3cccc(C(F)(F)F)c3F)cc(=O)n12 [compound 19, 2-[7-[[2-fluoro-3-(trifluoromethyl)phenyl]methyl]-2-methyl-5-oxo-thiazolo[3,2-a]pyrimidin-3-yl]-N-methyl-acetamide] | 5.45 | – | – |
| Cc1sc2nc(CN(CC(F)F)c3ccc(F)cc3)cc(=O)n2c1-c1cncnc1 [Example 5.6, 7-(((2,2-difluoroethyl)(4-fluorophenyl)amino)methyl)-2-methyl-3-(pyrimidin-5-yl)-5H-thiazolo[3,2-a] pyrimidin-5-one] | – | 0.766 | 164 |
| CNC(=O)c1c(C)sc2nc(Oc3cccc(C(F)(F)F)c3F)cc(=O)n12 [compound 59, 7-[2-fluoro-3-(trifluoromethyl)phenoxy]-N,2-dimethyl-5-oxo-thiazolo[3,2-a]pyrimidine-3-carboxamide] | 8.22 | – | – |
| CCc1sc2nc(Cn3nc(Cl)cc3C(F)(F)F)cc(=O)n2c1C(C)=O [compound 212, 3-acetyl-7-[[3-chloro-5-(trifluoromethyl)pyrazol-1-yl]methyl]-2-ethyl-thiazolo[3,2-a]pyrimidin-5-one] | 5.84 | – | – |
| CCNC(=O)c1c(C)sc2nc(CN(C)c3ccc(Cl)cn3)cc(=O)n12 [compound 124, 7-[[(5-chloro-2-pyridyl)-methyl-amino]methyl]-N-ethyl-2-methyl-5-oxo-thiazolo[3,2-a]pyrimidine-3-carboxamide] | 5.9 | – | – |
| Cc1sc2nc(Cn3nc(Cl)cc3C(F)(F)F)cc(=O)n2c1Cl [compound 193, 3-chloro-7-[[3-chloro-5-(trifluoromethyl)pyrazol-1-yl]methyl]-2-methyl-thiazolo[3,2-a]pyrimidin-5-one] | 0.243 | – | – |
